# Laboratory results as given in patent publication US6673823B2, “Use of peroxisome proliferator activated receptor (PPAR)-γ ligands as a treatment for pituitary tumors and associated conditions, such as Cushing's syndrome” (Cedars-Sinai Medical Center, priority 2002, dated 2004).
# Experiments:
# [1] = system: rat GH3 (PRL- and GH-secreting) cells; test: Cell cycle distribution (FACS, propidium iodide); type: cell-based
# Procedure: (§1) Cell Culture. […] Medium was replenished with ligands every 2 days, and cells maintained in serum-containing medium or in serum-free medium for up to 96 hours.
# (§2) Cell Cycle Distribution. Following treatments, GH3, αT3, or human pituitary tumor cells were trypsinized, centrifuged (1500 rpm×2 min), washed with PBS, and treated with 20 µg/mL Rnase A (Calbiochem, La Jolla, Cailf.). DNA was stained with 100 μg/ mL propidium iodide (PI) for 30 min at 4° C. and protected from light, prior to analysis with a FACScan (Becton Dickinson, Franklin Lakes, N.J.). DNA histogram analysis was performed using the modFitLT software.
# (§3) To determine the functional significance of pituitary tumor PPAR-γ expression, the effects of PPAR-γ ligands was tested on pituitary tumor cells in vitro. Troglitazone or rosiglitazone-treatment ([…]) of GH3 (PRL- and GH-secreting), and αT3 (gonadotroph-secreting) and human pituitary tumor cells for up to 48 hours, in serum-free conditions, or up to 96 hours, for cells maintained in serum-repleted conditions, induced G0-G1 cell-cycle arrest (GH3: control, G1 75±4% vs. ros, G1 85±2%, p=0.009; αT3: control, G1 67±0.5% vs. ros, G1 75±0.5%, p=0.01), and led to decreased number of cells in S-phase (GH3: control, 18±0.05% vs. ros, 12±0.5%, p=0.001; αT3: control, 31±0.5% vs. ros, 16±2.5%, p=0.03) (FIG. 11A).
# [2] = system: mouse αT3 gonadotroph cells; test: Cell cycle distribution (FACS, propidium iodide); type: cell-based
# Procedure: as §1, §2, §3
# [3] = system: Mouse corticotroph AtT20 pituitary tumor cells; test: Prevention of subcutaneous corticotroph tumor development in athymic nude mice; type: in vivo; settings: oral 150 mg/kg/day, 4 weeks
# [4] = system: patient with Cushing's syndrome; test: 24 hour urinary free cortisol excretion in a patient with Cushing's syndrome; type: in vivo, human; settings: 8 mg daily, one patient, vs. baseline, p<0.02
# [5] = system: AtT20 cells; test: TUNEL apoptosis analysis; type: cell-based, mouse
# Procedure: Terminal Deoxynucleotidyltransferase-mediated dUTP Nick End Labeling (TUNEL). Apoptosis-induced nuclear DNA fragmentation was detected using the in situ cell death detection kit, TMR red (Roche Diagnostics, Indianapolis, IN) following the manufacturer's protocol. Briefly, 48 hours following treatment with thiazolidinedione compounds (TZDs), AtT20 cells were fixed in 4% paraformaldehyde, permeabilized with 0.1% sodium citrate/ 0.6% Tween 20 (pH 7.4) for 2 min at 4° C. prior to incubation in Tunel reaction mix (TMR red/dNTP mix, TdT, and labeling buffer) for 60 min at 37° C. Slides were washed (3×5 min) in PBS/ Triton/ BSA (0.3%) and visualized on an Olympus BH2 immunofluorescent microscope.
# [6] = system: Mouse corticotroph pituitary tumor cells (AtT20); test: Growth of established corticotroph tumors in athymic nude mice; type: in vivo; settings: oral 150 mg/kg/day, 3 weeks
# Excerpt: The effects of TZD treatment were therefore tested on growth of already established pituitary corticotroph tumors, and steroid hormone levels in vivo. Mouse corticotroph pituitary tumor cells (AtT20) were innoculated subcutaneously in athymic nude mice, and tumors allowed to develop. […] Baseline serum ACTH and corticosterone levels, and tumor volumes were not different in the groups subsequently randomized as control or treated groups (data not shown, p=ns). […] All animals were euthanized at 6 weeks. The phenotypic appearance of the mice was strikingly different, and vehicle-treated mice were wasted, developed skin atrophy and appeared pigmented, with features of hypercorticolism (FIG. 8B).
# [7] = system: human patients; settings: cited from earlier work
# [8] = system: Mouse gonadotroph pituitary tumor cells (αT3); test: Growth of established gonadotroph tumors in athymic nude mice; type: in vivo; settings: oral 150 mg/kg/day for 6 weeks, started 3 weeks post-inoculation; vehicle 3.2±0.76, p=0.005
# Excerpt: As patients invariably present with already established and actively growing pituitary tumors, the effects of TZD treatment were therefore tested on growth of already established pituitary gonadotroph tumors in vivo. Mouse gonadotroph pituitary tumor cells (αT3) were inoculated subcutaneously in athymic nude mice, and tumors allowed to develop.
# [9] = system: AtT20 mouse pituitary (ACTH-secreting) tumor cells; test: Cell cycle distribution (FACS, propidium iodide); type: cell-based; settings: 10^−6 to 10^−4 M, up to 48 h serum-free or up to 96 h serum-replete
# Procedure: as §1
# as §2, with “AtT20” for “GH3, αT3, or human pituitary tumor”, “Calif.).” for “Cailf.).”, “μg/mL” for “μg/ mL”, “40°” for “4°”
# To determine the functional significance of pituitary corticotroph PPAR-γ expression, the effects of PPAR-γ ligands were tested on ACTH-secreting pituitary tumor cells in vitro. Troglitazone or rosiglitazone-treatment (10^−6 to 10^−4 M) for up to 48 hours, when cells were maintained in serum-free conditions, or up to 96 hours, when cells were maintained in serum-replete conditions, induced G0-G1 cell-cycle arrest (control, G1 75±4% vs. ros, G1 85±2%, p=0.009), and led to decreased S-phase cells (control, 18±0.05% vs. ros, 12±0.5%, p=0.001) (FIG. 3A).
# [10] = system: rat GH3, murine αT3, and human pituitary tumor cells; test: Annexin-FITC, FACS and TUNEL apoptosis analysis; type: cell-based; settings: control 33±3, p<0.0002
# Procedure: Apoptosis Assay: Annexin FITC by flow Cytometry. GH3, αT3 and human pituitary tumor cells were treated, washed in PBS, trypsinized, centrifuged, and washed prior to incubation with a FITC-labeled monoclonal Annexin antibody and PI for 30 min at room temperature according to manufacturer's instructions (Pharmingen, San Diego, Cailf.). About 1×10^6 cells were prepared and analyzed by flow cytometry, labeled nuclei (PI) were gated on light scatter to remove debris, and the percentage of Annexin-FITC positive cells determined. Annexin-FITC positive cells were also visualized with an Olympus BH2 immunofluorescent microscope.
# Terminal Deoxynucleotidyltransferase-mediated dUTP Nick End Labeling (TUNEL). Apoptosis-induced nuclear DNA fragmentation was detected using the in situ cell death detection kit, TMR red (Roche Diagnostics, Indianapolis, Ind.) following the manufacturer's protocol. Briefly, 48 hours following TZD treatment, GH3, αT3 and human pituitary tumor cells were fixed in 4% weight per volume paraformaldehyde, permeabilized with 0.1% sodium citrate/ 0.6% Tween 20 (pH 7.4) for 2 min at 4° C. prior to incubation in Tunel reaction mix (TMR red/dNTP mix, TdT, and labeling buffer) for 60 min at 37° C. Slides were washed (3×5 min) in PBS/Triton/BSA (0.3%) and visualized on a an Olympus BH2 immunofluorescent microscope.
# [11] = system: Somatolactotroph (GH3) tumor cells; test: Somato-lactotroph tumor growth in athymic nude mice; type: in vivo, mouse; settings: oral 150 mg/kg/day, 4 weeks
# [12] = system: gonadotroph tumor cells (LβT2); test: Gonadotroph tumor growth in nude mice; type: in vivo, mouse; settings: oral 150 mg/kg/day, 6 weeks
# Excerpt: FIG. 14A is a representative picture of a rosiglitazone-treated mouse (“Ros”) and an untreated (control) mouse 4 weeks following commencement of administration of treatment. The untreated (control) mouse in the picture developed numerous large visible tumors.
# In separate parallel similarly conducted studies, gonadotroph tumor cells (LβT2) were innoculated in mice as above.
# [13] = system: normal athymic Nu/Nu mice; settings: 150 mg/kg for 6 weeks
# Excerpt: A person first presented 2 years ago with bruising, skin striae, 70 lb weight gain and hypertension. Evaluation confirmed the diagnosis of Cushing's syndrome due to an ACTH-secreting pituitary tumor, which was resected by transsphenoidal surgery. The patient presented again one year later with weight gain, labile hypertension, diabetes and confirmed recurrence of Cushing's syndrome.
# [14] = system: mouse corticotroph tumor cells (AtT20); test: Western blot analysis of TZD-treated corticotroph cells; type: cell-based; settings: 10^−5 M, vs. vehicle
# Procedure: Western Blot Analysis: AtT20 cells were seeded at about 1×10^6 per well and human pituitary cell cultures were seeded at about 0.5×10^6 per well in 6-well plates for 24 hours prior to treatment with TZD's. Cells were then washed with PBS, and protein samples prepared in RIPA buffer and resolved under reducing conditions on 12% SDS-polyacrylamide gels using standard methods (Elstner, E., et al., Ligands for peroxisome proliferator-activated receptor-γ and retinoic acid receptor inhibit growth and induce apoptosis of human breast cancer cells in vitro and in BNX mice. Proc. Natl. Acad. Sci. USA 95:8806-8811 [1998]). Resolved proteins were transferred to nitrocellulose membranes and probed with antibodies to Bc1-2 (1:500), Bax (1:1000), TRAIL (1:500), p53 (1:1000) (all from Santa-Cruz, Cailf.), p-Rb (Ser 795) (1:1000), cleaved and uncleaved caspase-3 (1:500) (Cell Signalling, Beverly, Mass.) overnight at 4° C. After washing, membranes were incubated with appropriate IgG- horseradish peroxidase conjugates, and immunoreactive protein bands were visualized with ECL (Amersham, Buckinghamshire, UK). Total protein was normalized by reprobing with anti-actin antibody (1:5000, Sigma, St. Louis, Mo.) or Ponceau S staining, and protein bands quantified by densitometry (Video Densitometer model 620, Bio-Rad).
# [15] = system: POMC promoter (-706/+64 rat POMC-luc) in AtT20 cells; test: POMC promoter luciferase reporter transfection; type: cell-based, mouse; settings: CRH 50 nM, luciferase over vehicle control
# Excerpt: Transfection with POMC promoter.
compound,measurement,setting,value
"CN(CCOc1ccc(CC2SC(=O)NC2=O)cc1)c1ccccn1 (racemic) [rosiglitazone, (±)-5-[[4-[2-(methyl-2-pyridinylamino)ethoxy]phenyl]methyl]-2,4-thiazolidinedione,(Z)-2-butenedioate]",cells in S-phase,"[1]; control 18±0.05%, p=0.001",12±0.5%
same,cells in G1 (G0-G1 cell-cycle arrest),"[1]; up to 48 h serum-free or up to 96 h serum-repleted, control 75±4%, p=0.009",85±2%
same,cells in S-phase,"[2]; control 31±0.5%, p=0.03",16±2.5%
same,cells in G1 (G0-G1 cell-cycle arrest),"[2]; control 67±0.5%, p=0.01",75±0.5%
same,tumor diameter,[3]; control 1-2 cm,0.1 cm
same,"serum corticosterone, mean±SEM","[3]; vehicle 785±374, p<0.05",113 ± 17 ng/mL
same,"plasma ACTH, mean±SEM","[3]; vehicle 2085±847, p<0.05",98 ± 33 pg/mL
same,decrease of 24 hour urinary free cortisol excretion (UFC),[4]; after 2 weeks,33%
same,decrease of 24 hour urinary free cortisol excretion (UFC),[4]; after 3 weeks,55%
same,% apoptosis (TUNEL),"[5]; 10^−5 M, control 33±3%, p<0.001",69±7%
same,% apoptosis (TUNEL),"[5]; 10^−6 M, control 33±3%, p<0.001",47±4%
same,increase in apoptosis (TUNEL),"[5]; 48 hours after treatment, vs. control",2 fold
same,% apoptosis (TUNEL),"[5]; CRH 50 nM & ros 10^−5 M (pre-treatment before CRH), p<0.05 vs CRH",19±3%
same,reduction in plasma ACTH,[6]; vs. controls,75%
same,reduction in serum corticosterone levels,[6]; vs. controls,96%
same,"plasma ACTH, mean±SEM","[6]; controls 3841±308, p=0.002",978 ± 452 pg/mL
same,"serum corticosterone, mean±SEM","[6]; controls 4304±2593, p<0.05",181 ± 56 ng/mL
same,tolerability in humans,"[7]; About 20 milligrams per day, sustained periods of time",without adverse effects
same,"clinical surveillance, safety",[7]; more than 4500 patients with type 2 diabetes,"safe, effective"
same,final tumor weight of established tumors,[8],0.76 ± 0.29 g
same,S-phase cells,"[9]; control 18±0.05%, p=0.001",12±0.5%
same,cells in G1 (G0-G1 cell-cycle arrest),"[9]; control 75±4%, p=0.009",85±2%
same,% apoptosis,[10]; 10^−5 M,69±7%
same,% apoptosis,[10]; 10^−6 M,47±4%
same,tumor diameter,[11],1-2 cm
same,tumor weight,"[11]; control 0.13±0.01, p=0.008",0.04 ± 0.01 g
same,serum GH,"[11]; control 545±153, p=0.03",114 ± 66 ng/mL
same,serum PRL,"[11]; control 656±289, p=ns",95 ± 58 ng/mL
same,tumor weight,"[12]; control 3.44±0.42, P<0.002",0.81 ± 0.19 g
same,plasma LH,"[12]; control 69±19, p=0.004",6.8 ± 1.0 ng/mL
same,"serum corticosterone, treated vs. untreated normal mice",[13]; unstressed and stressed (data not shown),similar
same,"Plasma ACTH, baseline (unstressed), Mean±SEM","[13]; controls 434±40, p=ns",474 ± 33 pg/mL
same,"Plasma ACTH, stress-induced (15 minutes restraint), Mean±SEM","[13]; controls 5278±312, p=ns",4764 ± 292 pg/mL
"Cc1c(C)c2c(c(C)c1O)CCC(C)(COc1ccc(CC3SC(=O)NC3=O)cc1)O2 (racemic) [Troglitazone, (±)-5-[4[(6-Hydroxy-2,5,7,8-tetramethylchroman-2-yl)methoxy]-benzyl]-2,4-thiazolidinedione]",expression of pro-apoptotic protein p53,[14],increased expression
same,reason for market withdrawal,"[7]; withdrawn in March, 2000",reports of liver toxicity in humans
"CRH: Corticotrophin releasing hormone, a potent corticotroph proliferative factor",% apoptosis (TUNEL),"[5]; CRH 50 nM alone, 24 hours",4±0.5%
same,increase in POMC-transcription,[15],1.6 fold
